The subject of one data set is Staphylococcus aureus. Briefly: Antibacterial activity against Staphylococcus aureus ATCC 29213 assessed as reduction in bacterial growth measured for 18 to 20 hrs by microbroth dilution method. Type of data set: functional. The conditions noted are these: time 18-20 hrs. In general terms: In broth dilution the organism is exposed to a series of concentrations in liquid medium.

Data set [1] is described as follows: Selectivity index, ratio of HC50 for hemolytic activity in sheep RBC assessed as 50% hemolysis incubated for 30 mins by microplate reader method to MIC for antibacterial activity against Pseudomonas aeruginosa ATCC 27853 assessed as reduction in bacterial growth measured for 18 to 20 hrs by microbroth dilution method. As to conditions: sheep red blood cells (erythrocytes), read-out: Selectivity Index. Format: toxicity.

The nature of data set [2]: Hemolytic activity in sheep RBC assessed as 50% hemolysis incubated for 30 mins by microplate reader method. Type of data set: toxicity, cell-based, Ovis aries, Erythrocyte. As to conditions: sheep red blood cells (erythrocytes).
Another data set relates to Bacillus subtilis. The data set is described as follows: Antibacterial activity against Bacillus subtilis ATCC 6051 assessed as reduction in bacterial growth measured for 18 to 20 hrs by microbroth dilution method. Type of data set: functional. As to conditions: time 18-20 hrs.
A short description of data set [3]: Hemolytic activity in sheep RBC assessed as hemolysis incubated for 30 mins by microplate reader method. Format: toxicity, cell-based, Ovis aries, Erythrocyte. The conditions noted are these: sheep red blood cells (erythrocytes), read-out: Activity.
The target in data set [4] is T1, Trypsin (Homo sapiens, UniProt P07477+P07478+P35030). Briefly: Stability of compound assessed as trypsin (unknown origin)-mediated compound degradation measured at 3 mins by LCMS analysis. Format: ADME, protein assay. The conditions noted are these: 0.05 h.
A short description of data set [5]: Selectivity index, ratio of HC50 for hemolytic activity in sheep RBC assessed as 50% hemolysis incubated for 30 mins by microplate reader method to MIC for antibacterial activity against Escherichia coli ATCC 25922 assessed as reduction in bacterial growth measured for 18 to 20 hrs by microbroth dilution method. Format: toxicity. As to conditions: sheep red blood cells (erythrocytes), read-out: Selectivity Index.

In the next data set the test system is Pseudomonas aeruginosa. The data set is described as follows: Antibacterial activity against Pseudomonas aeruginosa ATCC 27853 assessed as reduction in bacterial growth measured for 18 to 20 hrs by microbroth dilution method. Format: functional. As to conditions: time 18-20 hrs.
Data set [6] can be described thus: Selectivity index, ratio of HC50 for hemolytic activity in sheep RBC assessed as 50% hemolysis incubated for 30 mins by microplate reader method to MIC for antibacterial activity against Bacillus subtilis ATCC 6051 assessed as reduction in bacterial growth measured for 18 to 20 hrs by microbroth dilution method. Format: toxicity. The conditions noted are these: sheep red blood cells (erythrocytes), read-out: Selectivity Index.

A short description of data set [7]: Selectivity index, ratio of HC50 for hemolytic activity in sheep RBC assessed as 50% hemolysis incubated for 30 mins by microplate reader method to MIC for antibacterial activity against Staphylococcus aureus ATCC 29213 assessed as reduction in bacterial growth measured for 18 to 20 hrs by microbroth dilution method. The conditions noted are these: sheep red blood cells (erythrocytes), read-out: Selectivity Index. Type of data set: toxicity.

A further data set concerns Escherichia coli. Briefly: Antibacterial activity against Escherichia coli ATCC 25922 assessed as reduction in bacterial growth measured for 18 to 20 hrs by microbroth dilution method. Type of data set: functional. As to conditions: time 18-20 hrs.
Data set [8] deals with T1, Trypsin. Briefly: Stability of compound assessed as trypsin (unknown origin) mediated compound degradation measured at 4.5 hrs by LCMS analysis. As to conditions: read-out: Drug degradation. Format: ADME, protein assay.

Where only a bound is given, the exact number is not on record here.

As a reminder, the MIC is the smallest concentration in the dilution series that meets the test's criterion for growth inhibition. For orientation: HC50 means the concentration that lyses half of the red blood cells.

Consider H-KWKLFKKIGAVLKVL-NH2, for which the minimum inhibitory concentration (MIC) in the data set on Staphylococcus aureus came out at 4 µg/mL; in the data set with Bacillus subtilis, 32 µg/mL; in the data set on Pseudomonas aeruginosa it was 8 µg/mL; with Escherichia coli it was 4 µg/mL. Also, the selectivity ratio at 30 min amounted to 86 in data set [1], 173 in [5], 22 in data set [6] and 173 in data set [7]. The HC50 at 0.5 h in data set [2] was 690 µg/mL. Besides, the hemolysis at 0.5 h in [3] amounted to 10%. The Stability entry on Trypsin [4] is recorded as “Unstable”.
`CC[C@H](C)[C@H](NC(=O)[C@H](CCCN)NC(=O)[C@H](CCCN)NC(=O)[C@H](Cc1ccccc1)NC(=O)[C@H](CC(C)C)NC(=O)[C@H](CCCN)NC(=O)[C@H](Cc1c[nH]c2ccccc12)NC(=O)[C@@H](N)CCCN)C(=O)NCC(=O)N[C@@H](C)C(=O)N[C@H](C(=O)N[C@@H](CC(C)C)C(=O)N[C@@H](CCCN)C(=O)N[C@H](C(=O)N[C@@H](CC(C)C)C(N)=O)C(C)C)C(C)C`: the metabolised at 4.5 h at Trypsin [8] stood at 58%. Further, the selectivity ratio at 30 min in data set [1] is more than 125; in data set [5], more than 250; in data set [6], more than 31; in data set [7] it was more than 125. In [2], the HC50 at 0.5 h was more than 1000 µg/mL. Also, the hemolysis at 0.5 h in data set [3] worked out at 10%.
